Here are results for eleven compounds from the NIST ThermoML archive (doi:10.1016/j.jct.2018.02.022).

± gives the expanded uncertainty stated by the source.

The conditions of data set [1]: 92.3 kPa, Liquid; for viscosity: Concentric cylinders viscometry; for speed of sound: Frequency=3 MHz, Single path-length method; for mass density: Vibrating tube method.
Data set [2] in a line: xn = mol fraction of the nth substance listed. The following applies: 92.3 kPa, Liquid, x2 = 0; for viscosity: Concentric cylinders viscometry; for mass density: Vibrating tube method.

Broadly, the viscosity is the internal friction of a fluid under shear. The term speed of sound denotes how fast a sound wave travels through the sample. As usually defined, the mass density is the mass of a sample divided by its volume. For `OCCO` [1,2-ethanediol], the viscosity in data set [1] (293.15 K) came out at 20.61 ± 2.9 mPa·s; in data set [1] (298.15 K), 16.22 ± 2.3 mPa·s; in data set [1] (303.15 K), 13.87 ± 1.9 mPa·s; in data set [1] (308.15 K) it was 11.48 ± 1.6 mPa·s. In addition, the speed of sound in data set [1] (293.15 K) was found to be 1666.5 ± 1.8 m/s; in data set [1] (298.15 K), 1654.7 ± 1.8 m/s; in data set [1] (303.15 K), 1642.9 ± 1.8 m/s; in data set [1] (308.15 K) it was 1631.2 ± 1.8 m/s. Also, the mass density in data set [1] (293.15 K) stood at 1113.72 ± 3 kg/m3; in data set [1] (303.15 K), 1106.71 ± 3 kg/m3.
As to `OCCOCCO` [diethylene glycol], the viscosity in data set [1] (293.15 K) was found to be 35.89 ± 5 mPa·s; in data set [1] (298.15 K), 27.67 ± 3.9 mPa·s; in data set [1] (303.15 K), 22.48 ± 3.1 mPa·s; in data set [1] (308.15 K) it was 18.27 ± 2.6 mPa·s. For the same compound, the speed of sound in data set [1] (293.15 K) is on record as 1591 ± 2 m/s; in data set [1] (298.15 K), 1579.1 ± 2 m/s; in data set [1] (303.15 K), 1567.2 ± 2 m/s; in data set [1] (308.15 K), 1555.3 ± 2 m/s. For the same compound, the mass density was 1116.73 ± 3 kg/m3 in data set [1] (293.15 K), 1113.17 ± 3 kg/m3 in data set [1] (298.15 K), 1109.6 ± 3 kg/m3 in data set [1] (303.15 K) and 1106.01 ± 3 kg/m3 in data set [1] (308.15 K).
As to `CCO` [ethanol], the viscosity amounted to 1.202 ± 0.17 mPa·s in data set [1] (293.15 K), 1.091 ± 0.15 mPa·s in data set [1] (298.15 K), 0.992 ± 0.14 mPa·s in data set [1] (303.15 K) and 0.9039 ± 0.13 mPa·s in data set [1] (308.15 K). In addition, the speed of sound in data set [1] (293.15 K) is 1160.7 ± 1.8 m/s; in data set [1] (298.15 K) it was 1143.5 ± 1.8 m/s; in data set [1] (303.15 K), 1126.4 ± 1.8 m/s; in data set [1] (308.15 K), 1109.6 ± 1.8 m/s. Also, the mass density in data set [1] (293.15 K) is recorded as 789.547 ± 3 kg/m3; in data set [1] (298.15 K), 785.26 ± 3 kg/m3; in data set [1] (303.15 K), 780.941 ± 3 kg/m3; in data set [1] (308.15 K), 776.592 ± 3 kg/m3.
For the compound `OCC(O)CO` [glycerol], the viscosity in data set [1] (293.15 K) was found to be 1408.4 ± 210 mPa·s; in data set [1] (298.15 K), 900.44 ± 130 mPa·s; in data set [1] (303.15 K) it was 593.09 ± 85 mPa·s; in data set [1] (308.15 K), 401.76 ± 57 mPa·s. Besides, the speed of sound in data set [1] (293.15 K) is reported as 1925.5 ± 1.8 m/s; in data set [1] (298.15 K) it was 1911.9 ± 1.8 m/s; in data set [1] (303.15 K), 1899.6 ± 1.8 m/s; in data set [1] (308.15 K), 1888.1 ± 1.8 m/s. Also, the mass density in data set [1] (293.15 K) was 1260.73 ± 3 kg/m3; in data set [1] (298.15 K), 1257.65 ± 3 kg/m3; in data set [1] (303.15 K), 1254.48 ± 3 kg/m3; in data set [1] (308.15 K), 1251.38 ± 3 kg/m3.
On to `OCCOCCOCCO` [triethylene glycol], for which the viscosity in data set [1] (293.15 K) is 48.06 ± 6.7 mPa·s; in data set [1] (298.15 K) it was 36.88 ± 5.2 mPa·s; in data set [1] (303.15 K), 29.59 ± 4.1 mPa·s; in data set [1] (308.15 K), 23.72 ± 3.3 mPa·s. Also, the speed of sound turned out to be 1626.8 ± 2 m/s in data set [1] (293.15 K), 1611.6 ± 2 m/s in data set [1] (298.15 K), 1596.6 ± 2 m/s in data set [1] (303.15 K) and 1581.7 ± 2 m/s in data set [1] (308.15 K). Also, the mass density stood at 1123.48 ± 3 kg/m3 in data set [1] (293.15 K), 1119.59 ± 3 kg/m3 in data set [1] (298.15 K), 1115.7 ± 3 kg/m3 in data set [1] (303.15 K) and 1111.81 ± 3 kg/m3 in data set [1] (308.15 K).
As for `O` [water], the viscosity is 1.067 ± 0.15 mPa·s in data set [1] (293.15 K), 0.8969 ± 0.13 mPa·s in data set [1] (298.15 K), 0.8385 ± 0.12 mPa·s in data set [1] (303.15 K) and 0.7589 ± 0.11 mPa·s in data set [1] (308.15 K). Further, the mass density turned out to be 998.429 ± 3 kg/m3 in data set [1] (293.15 K), 997.267 ± 3 kg/m3 in data set [1] (298.15 K), 995.867 ± 3 kg/m3 in data set [1] (303.15 K) and 994.252 ± 3 kg/m3 in data set [1] (308.15 K).
As to `O` [water] + CCO, the viscosity stood at 1.067 ± 0.15 mPa·s in data set [2] (293.15 K), 0.8969 ± 0.13 mPa·s in data set [2] (298.15 K), 0.8385 ± 0.12 mPa·s in data set [2] (303.15 K) and 0.7589 ± 0.11 mPa·s in data set [2] (308.15 K). Also, the mass density was determined as 998.429 ± 3 kg/m3 in data set [2] (293.15 K), 997.267 ± 3 kg/m3 in data set [2] (298.15 K), 995.867 ± 3 kg/m3 in data set [2] (303.15 K) and 994.252 ± 3 kg/m3 in data set [2] (308.15 K).
As for `O` [water] + OCC(O)CO, the viscosity in data set [2] (293.15 K) is recorded as 1.067 ± 0.15 mPa·s; in data set [2] (298.15 K), 0.8969 ± 0.13 mPa·s; in data set [2] (303.15 K), 0.8385 ± 0.12 mPa·s; in data set [2] (308.15 K) it was 0.7589 ± 0.11 mPa·s. Besides, the mass density in data set [2] (293.15 K) stood at 998.429 ± 3 kg/m3; in data set [2] (298.15 K) it was 997.267 ± 3 kg/m3; in data set [2] (303.15 K), 995.867 ± 3 kg/m3; in data set [2] (308.15 K), 994.252 ± 3 kg/m3.
As to `O` [water] + OCCO, the viscosity in data set [2] (293.15 K) is listed as 1.067 ± 0.15 mPa·s; in data set [2] (298.15 K), 0.8969 ± 0.13 mPa·s; in data set [2] (303.15 K), 0.8385 ± 0.12 mPa·s; in data set [2] (308.15 K), 0.7589 ± 0.11 mPa·s. In addition, the mass density in data set [2] (293.15 K) is recorded as 998.429 ± 3 kg/m3; in data set [2] (298.15 K), 997.267 ± 3 kg/m3; in data set [2] (303.15 K), 995.867 ± 3 kg/m3; in data set [2] (308.15 K), 994.252 ± 3 kg/m3.
For `O` [water] + OCCOCCO, the viscosity in data set [2] (293.15 K) came to 1.067 ± 0.15 mPa·s; in data set [2] (298.15 K), 0.8969 ± 0.13 mPa·s; in data set [2] (303.15 K) it was 0.8385 ± 0.12 mPa·s; in data set [2] (308.15 K), 0.7589 ± 0.11 mPa·s. Further, the mass density in data set [2] (293.15 K) is reported as 998.429 ± 3 kg/m3; in data set [2] (298.15 K), 997.267 ± 3 kg/m3; in data set [2] (303.15 K) it was 995.867 ± 3 kg/m3; in data set [2] (308.15 K), 994.252 ± 3 kg/m3.
With `O` [water] + OCCOCCOCCO, the viscosity in data set [2] (293.15 K) is 1.067 ± 0.15 mPa·s; in data set [2] (298.15 K) it was 0.8969 ± 0.13 mPa·s; in data set [2] (303.15 K), 0.8385 ± 0.12 mPa·s; in data set [2] (308.15 K), 0.7589 ± 0.11 mPa·s. The mass density was found to be 998.429 ± 3 kg/m3 in data set [2] (293.15 K), 997.267 ± 3 kg/m3 in data set [2] (298.15 K), 995.867 ± 3 kg/m3 in data set [2] (303.15 K) and 994.252 ± 3 kg/m3 in data set [2] (308.15 K).
